# Laboratory results reported in ChEMBL document CHEMBL3272190, “(2-exo-3-endo)-2-Aryltropane-3-carboxylic esters, a new class of narcotic antagonists” (J Med Chem, 1978).
# Calls of active or inactive are those of the source. No cut-off for these calls is given here.
# Columns and labels:
# [1] = test system: Mus musculus; experiment: Antiwrithing activity in sc dosed mouse assessed as prevention of acetylcholine-induced abdominal constriction response; assay type: functional; details: Abdomen
# [2] = test system: Rattus norvegicus; experiment: Narcotic analgesic activity in sc dosed rat assessed as inhibition of phenazocine-induced effect by D'Amour-Smith tail flick test; assay type: functional
# [3] = test system: Mus musculus; experiment: Induction of hyperactiveness in mouse at 30 mg/kg, sc; assay type: organism-based; design: dose 30 mg/kg, route subcutaneous; details: in vivo
# [4] = test system: Mus musculus; experiment: Antiwrithing activity in sc dosed mouse assessed as prevention of phenyl-p-benzoquinone-induced abdominal constriction response; assay type: functional; details: Abdomen
# [5] = test system: Rattus norvegicus; experiment: Analgesic activity in rat assessed as inhibition of intraarterial bradykinin-induced effect up to 100 mg/kg, sc; assay type: functional; design: scale not given: the % may be the effect or the level left
# [6] = test system: Rattus norvegicus; experiment: Narcotic analgesic activity in po dosed rat assessed as inhibition of phenazocine-induced effect by D'Amour-Smith tail flick test; assay type: functional
# [7] = test system: Rattus norvegicus; experiment: Induction of tremors in rat at 120 mg/kg, sc; assay type: organism-based; design: dose 120 mg/kg, route subcutaneous; details: in vivo
# [8] = test system: Mus musculus; experiment: Induction of hyperactiveness in mouse at 75 mg/kg, sc; assay type: organism-based; design: dose 75 mg/kg, route subcutaneous; details: in vivo
# [9] = test system: Rattus norvegicus; experiment: Induction of hyperactiveness in rat at 120 mg/kg, sc; assay type: organism-based; design: dose 120 mg/kg, route subcutaneous; details: in vivo
# [10] = test system: Mus musculus; experiment: Induction of tremors in mouse at 35 mg/kg, sc; assay type: organism-based; design: dose 35 mg/kg, route subcutaneous; details: in vivo
# [11] = test system: Mus musculus; experiment: Induction of depression in mouse at 35 mg/kg, sc; assay type: organism-based; design: dose 35 mg/kg, route subcutaneous; details: in vivo
# [12] = test system: Rattus norvegicus; experiment: Induction of convulsion in rat at 120 mg/kg, sc; assay type: organism-based; design: dose 120 mg/kg, route subcutaneous; details: in vivo
# [13] = test system: Rattus norvegicus; experiment: Narcotic analgesic activity in rat assessed as inhibition of phenazocine-induced effect at 80 mg, sc by D'Amour-Smith tail flick test; assay type: functional
# [14] = test system: Rattus norvegicus; experiment: Toxicity in rat assessed as mortality at 160 mg, sc; assay type: organism-based; details: in vivo
# [15] = test system: Mus musculus; experiment: Induction of convulsion in mouse at 100 mg/kg, sc; assay type: organism-based; design: dose 100 mg/kg, route subcutaneous; details: in vivo
# [16] = test system: Mus musculus; experiment: Antiwrithing activity in po dosed mouse assessed as prevention of acetylcholine-induced abdominal constriction response; assay type: functional; details: Abdomen
# [17] = test system: Rattus norvegicus; experiment: Induction of rigidity in rat at 120 mg/kg, sc; assay type: organism-based; design: dose 120 mg/kg, route subcutaneous; details: in vivo
# [18] = test system: Rattus norvegicus; experiment: Analgesic activity in rat assessed as inhibition of intraarterial bradykinin-induced effect at 10 mg/kg, sc; assay type: functional, organism-based; design: dose 10 mg/kg
# [19] = test system: Rattus norvegicus; experiment: Narcotic analgesic activity in rat assessed as inhibition of phenazocine-induced effect at 10 mg, ip by D'Amour-Smith tail flick test; assay type: functional, organism-based
# [20] = test system: Rattus norvegicus; experiment: Toxicity in rat assessed as mortality at >10 mg, ip; assay type: organism-based; details: in vivo
# [21] = test system: Mus musculus; experiment: Induction of depression in mouse at 75 mg/kg, sc; assay type: organism-based; design: dose 75 mg/kg, route subcutaneous; details: in vivo
structure (smiles),measurement,setting,value
COC(=O)[C@H]1C[C@H]2CC[C@H]([C@H]1c1ccc(O)cc1)N2C (racemic),ED50,[1],7.1 mg/kg
same,AD50,[2],>80 mg/kg
same,Activity,[3],Toxic
COC(=O)[C@@H]1C[C@H]2CC[C@H]([C@H]1c1cccc(O)c1)N2C (racemic),ED50,[1],24 mg/kg
same,ED50,[4],100 mg/kg
same,AD50,[2],>80 mg/kg
same,Activity,[5]; route subcutaneous,0%
COC(=O)[C@H]1C[C@H]2CC[C@H]([C@H]1c1cccc(O)c1)N2C (racemic),ED50,[1],16 mg/kg
same,ED50,[4],75 mg/kg
same,AD50,[2],0.37 mg/kg
same,AD50,[6],1.8 mg/kg
same,Activity,[7],Toxic
same,Activity,[8],Toxic
same,Activity,[9],Toxic
COC(=O)[C@H]1C[C@H]2CC[C@H]([C@H]1c1cccc(OC)c1)N2C (racemic),ED50,[1],19 mg/kg
same,AD50,[2],>80 mg/kg
same,Activity,[10],Toxic
same,Activity,[11],Toxic
COC(=O)[C@@H]1C[C@H]2CC[C@H]([C@H]1Cc1ccccc1)N2C (racemic),ED50,[1],5.8 mg/kg
same,AD50,[2],>80 mg/kg
same,Activity,[12],Toxic
same,Activity,[8],Toxic
COC(=O)[C@H]1C[C@H]2CC[C@H]([C@H]1Cc1ccccc1)N2C (racemic),ED50,[1],4.4 mg/kg
same,ED50,[4],20 mg/kg
same,ED50,"[2]; Rattus norvegicus, Tail, sc",54 mg/kg
same,inhibition (INH),[13],69%
same,Activity,[14],Toxic
same,Activity,[12],Toxic
same,Activity,[15],Toxic
COC(=O)[C@@H]1C[C@H]2CC[C@H]([C@H]1c1cccs1)N2C (racemic),ED50,[1],12 mg/kg
same,ED50,[16],35 mg/kg
same,AD50,[2],>80 mg/kg
same,Activity,[5],Active
same,Activity,[7],Toxic
same,Activity,[12],Toxic
same,Activity,[17],Toxic
COC(=O)[C@@H]1C[C@H]2CC[C@H]([C@H]1c1ccc[nH]1)N2C (racemic),ED50,[1],13 mg/kg
same,ED50,[16],42 mg/kg
same,AD50,[2],56 mg/kg
same,Activity,[18],inactive
COC(=O)[C@H]1CCN(C)C[C@H]1c1ccccc1 (relative stereo),ED50,[1],16 mg/kg
same,Activity,[19],inactive
same,Activity,[20],Toxic
same,Activity,[21],Toxic
COC(=O)[C@H]1CCN(C)C[C@@H]1c1ccccc1 (relative stereo),ED50,[1],16 mg/kg
same,Activity,[19],inactive
same,Activity,[20],Toxic
same,Activity,[21],Toxic
COC(=O)[C@@H]1CCN(C)C[C@@H]1c1cccs1 (relative stereo),AD50,[2],49 mg/kg
COC(=O)[C@H]1CCN(C)C[C@@H]1c1cccs1 (relative stereo),AD50,[2],5.6 mg/kg
CCOC(=O)C1(c2ccccc2)CCN(C)CC1 [MEPERIDINE],AD50,[2],19 mg/kg
same,AD50,[6],25 mg/kg
CN1CC[C@]23c4c5ccc(O)c4O[C@H]2[C@@H](O)C=C[C@H]3[C@H]1C5 [MORPHINE],AD50,[2],29 mg/kg
same,AD50,[6],13 mg/kg
C=CCN1CC[C@]23c4c5ccc(O)c4O[C@H]2[C@@H](O)C=C[C@H]3[C@H]1C5 [NALORPHINE],ED50,[4],15 mg/kg
same,AD50,[2],0.1 mg/kg
same,AD50,[6],6 mg/kg
C=CCN1CC[C@]23c4c5ccc(O)c4O[C@H]2C(=O)CC[C@@]3(O)[C@H]1C5 [NALOXONE],ED50,[1],60 mg/kg
same,ED50,[4],103 mg/kg
same,AD50,[2],0.008 mg/kg
